# Measured values taken from US20250161234A1, “METHODS OF USE OF BENZALDEHYDE COMPOSITIONS” (priority 2022, published 2025).
# Tests used:
# Assay type in all cases: cell-based
# [1] = test system: Klebsiella pneomoniae; assay: Successive dilution in TSB, growth inhibition; set-up: key: The presence of a “+” in the box indicates that the particular bacteria was found; the presence of a “−” indicates that the particular bacteria was not found
# Method: (§1) The following is a summary of an experiment using the benzaldehyde composition as disclosed herein to destroy bacteria, for example to test it as a preservative of food. The benzaldehyde was tested for its ability to inhibit the growth of microbes at ten different concentrations of the benzaldehyde, each concentration was half of the previous concentrations as a result of a dilution using TSB as the medium. The following concentrations were tested by successive dilutions of 100% benzaldehyde: 50%, 25%, 12.5%, 6.25%, 3.125%, 1.5625%, 0.78125%, 0.390625%, 0.195313%, 0.097656%. Each concentration appears in the chart below for each of five different strains of bacteria. The experiment was conducted twice and therefore generated two charts (see below). […] Thus, the minimum concentration needed to substantially eliminate the bacterial strain can be deduced from the experiment.
# (§2) The initial concentration of the microbes was approximately […]. The microbes studied are listed below. Enterococcus feaclis • 2. Staphylococcus aureus • 3. Pseudomonas aeruginosa • 4. E. coli • 5. Klebsiella pneomoniae
# [2] = test system: Staphylococcus aureus; assay: Successive dilution in TSB, growth inhibition; set-up: key: The presence of a “+” in the box indicates that the particular bacteria was found; the presence of a “−” indicates that the particular bacteria was not found
# Method: as §1, §2
# [3] = test system: Pseudomonas aeruginosa; assay: Successive dilution in TSB, growth inhibition; set-up: key: The presence of a “+” in the box indicates that the particular bacteria was found; the presence of a “−” indicates that the particular bacteria was not found
# Method: as §1, §2
# [4] = test system: E. coli; assay: Successive dilution in TSB, growth inhibition; set-up: key: The presence of a “+” in the box indicates that the particular bacteria was found; the presence of a “−” indicates that the particular bacteria was not found
# Method: as §1, §2
# [5] = test system: Enterococcus feaclis; assay: Successive dilution in TSB, growth inhibition; set-up: key: The presence of a “+” in the box indicates that the particular bacteria was found; the presence of a “−” indicates that the particular bacteria was not found
# Method: as §1, §2
# [6] = test system: E. coli; assay: Successive dilution in TSB, growth inhibition; set-up: key: The presence of a “+” in the box indicates that the particular bacteria was found; the presence of a “−” indicates that the particular bacteria was not found; conditions: benzaldehyde concentration given as 2, in TSB; Table 1
# [7] = test system: five different strains of bacteria; assay: Successive dilution in TSB, statements on all five strains
# Method: as §1, §2
# A further experiment was conducted in which instead of starting from a 100% concentration, we started from a 10% concentration of benzaldehyde and performed successive dilutions. […] This experimental was not repeated after receiving the results.
# [8] = benzaldehyde 0.097656% in TSB, Table 1
# [9] = benzaldehyde 0.097656% in TSB, Table 2
# [10] = benzaldehyde 0.195313% in TSB, Table 1
# [11] = benzaldehyde 0.195313% in TSB, Table 2
# [12] = benzaldehyde 0.390625% in TSB, Table 1
# [13] = benzaldehyde 0.390625% in TSB, Table 2
# [14] = benzaldehyde 0.78125% in TSB, Table 1
# [15] = benzaldehyde 0.78125% in TSB, Table 2
# [16] = benzaldehyde 1.5625% in TSB, Table 1
# [17] = benzaldehyde 1.5625% in TSB, Table 2
# [18] = benzaldehyde 3.125% in TSB, Table 1
# [19] = benzaldehyde 3.125% in TSB, Table 2
# [20] = benzaldehyde 6.25% in TSB, Table 1
# [21] = benzaldehyde 6.25% in TSB, Table 2
# [22] = benzaldehyde 12.5% in TSB, Table 1
# [23] = benzaldehyde 12.5% in TSB, Table 2
# [24] = benzaldehyde 25% in TSB, Table 2
# [25] = benzaldehyde 50% in TSB, Table 1
# [26] = benzaldehyde 50% in TSB, Table 2
# [27] = benzaldehyde concentration given as 2, in TSB, Table 1
# [28] = conclusion from the dilution experiments
smiles,measurement,setting,value
O=Cc1ccccc1 [Benzaldehyde],bacteria found (+) / not found (−),[1]; [8],+
same,bacteria found (+) / not found (−),[1]; [9],+
same,bacteria found (+) / not found (−),[1]; [10],+
same,bacteria found (+) / not found (−),[1]; [11],+
same,bacteria found (+) / not found (−),[1]; [12],+
same,bacteria found (+) / not found (−),[1]; [13],−
same,bacteria found (+) / not found (−),[1]; [14],+
same,bacteria found (+) / not found (−),[1]; [15],−
same,bacteria found (+) / not found (−),[1]; [16],−
same,bacteria found (+) / not found (−),[1]; [17],−
same,bacteria found (+) / not found (−),[1]; [18],−
same,bacteria found (+) / not found (−),[1]; [19],−
same,bacteria found (+) / not found (−),[1]; [20],−
same,bacteria found (+) / not found (−),[1]; [21],−
same,bacteria found (+) / not found (−),[1]; [22],−
same,bacteria found (+) / not found (−),[1]; [23],−
same,bacteria found (+) / not found (−),[1]; [24],−
same,bacteria found (+) / not found (−),[1]; [25],−
same,bacteria found (+) / not found (−),[1]; [26],−
same,bacteria found (+) / not found (−),[1]; [27],−
same,bacteria found (+) / not found (−),[2]; [8],+
same,bacteria found (+) / not found (−),[2]; [9],+
same,bacteria found (+) / not found (−),[2]; [10],+
same,bacteria found (+) / not found (−),[2]; [11],+
same,bacteria found (+) / not found (−),[2]; [12],+
same,bacteria found (+) / not found (−),[2]; [13],+
same,bacteria found (+) / not found (−),[2]; [14],+
same,bacteria found (+) / not found (−),[2]; [15],+
same,bacteria found (+) / not found (−),[2]; [16],+
same,bacteria found (+) / not found (−),[2]; [17],−
same,bacteria found (+) / not found (−),[2]; [18],−
same,bacteria found (+) / not found (−),[2]; [19],−
same,bacteria found (+) / not found (−),[2]; [20],−
same,bacteria found (+) / not found (−),[2]; [21],−
same,bacteria found (+) / not found (−),[2]; [22],−
same,bacteria found (+) / not found (−),[2]; [23],−
same,bacteria found (+) / not found (−),[2]; [24],−
same,bacteria found (+) / not found (−),[2]; [25],−
same,bacteria found (+) / not found (−),[2]; [26],−
same,bacteria found (+) / not found (−),[2]; [27],−
same,bacteria found (+) / not found (−),[3]; [8],+
same,bacteria found (+) / not found (−),[3]; [9],+
same,bacteria found (+) / not found (−),[3]; [10],+
same,bacteria found (+) / not found (−),[3]; [11],+
same,bacteria found (+) / not found (−),[3]; [12],+
same,bacteria found (+) / not found (−),[3]; [13],+
same,bacteria found (+) / not found (−),[3]; [14],+
same,bacteria found (+) / not found (−),[3]; [15],+
same,bacteria found (+) / not found (−),[3]; [16],−
same,bacteria found (+) / not found (−),[3]; [17],−
same,bacteria found (+) / not found (−),[3]; [18],−
same,bacteria found (+) / not found (−),[3]; [19],−
same,bacteria found (+) / not found (−),[3]; [20],−
same,bacteria found (+) / not found (−),[3]; [21],−
same,bacteria found (+) / not found (−),[3]; [22],−
same,bacteria found (+) / not found (−),[3]; [23],−
same,bacteria found (+) / not found (−),[3]; [24],−
same,bacteria found (+) / not found (−),[3]; [25],−
same,bacteria found (+) / not found (−),[3]; [26],−
same,bacteria found (+) / not found (−),"[3]; in TSB, Table 1",−
same,bacteria found (+) / not found (−),[4]; [8],+
same,bacteria found (+) / not found (−),[4]; [9],+
same,bacteria found (+) / not found (−),[4]; [10],+
same,bacteria found (+) / not found (−),[4]; [11],+
same,bacteria found (+) / not found (−),[4]; [12],+
same,bacteria found (+) / not found (−),[4]; [13],+
same,bacteria found (+) / not found (−),[4]; [14],+
same,bacteria found (+) / not found (−),[4]; [15],+
same,bacteria found (+) / not found (−),[4]; [16],−
same,bacteria found (+) / not found (−),[4]; [17],−
same,bacteria found (+) / not found (−),[4]; [18],−
same,bacteria found (+) / not found (−),[4]; [19],−
same,bacteria found (+) / not found (−),[4]; [20],−
same,bacteria found (+) / not found (−),[4]; [21],−
same,bacteria found (+) / not found (−),[4]; [22],−
same,bacteria found (+) / not found (−),[4]; [23],−
same,bacteria found (+) / not found (−),[4]; [24],−
same,bacteria found (+) / not found (−),[4]; [25],−
same,bacteria found (+) / not found (−),[4]; [26],−
same,bacteria found (+) / not found (−),[5]; [8],+
same,bacteria found (+) / not found (−),[5]; [9],+
same,bacteria found (+) / not found (−),[5]; [10],+
same,bacteria found (+) / not found (−),[5]; [11],+
same,bacteria found (+) / not found (−),[5]; [12],+
same,bacteria found (+) / not found (−),[5]; [13],+
same,bacteria found (+) / not found (−),[5]; [14],+
same,bacteria found (+) / not found (−),[5]; [15],+
same,bacteria found (+) / not found (−),[5]; [16],+
same,bacteria found (+) / not found (−),[5]; [17],+
same,bacteria found (+) / not found (−),[5]; [18],+
same,bacteria found (+) / not found (−),[5]; [19],+
same,bacteria found (+) / not found (−),[5]; [20],+
same,bacteria found (+) / not found (−),[5]; [21],+
same,bacteria found (+) / not found (−),[5]; [22],−
same,bacteria found (+) / not found (−),[5]; [23],−
same,bacteria found (+) / not found (−),[5]; [24],−
same,bacteria found (+) / not found (−),[5]; [25],−
same,bacteria found (+) / not found (−),[5]; [26],−
same,bacteria found (+) / not found (−),[5]; [27],−
same,bacteria found (+) / not found (−),[6],−
same,benzaldehyde concentration giving a broad spectrum effect,[7]; [28],≥ 12.5%
same,benzaldehyde concentration giving an antibacterial effect against at least some bacteria,[7]; [28],≥ 1.5625%
same,detection of bacteria,"[7]; further experiment started from 10% benzaldehyde, first dilution to 5%, all strains",positive detection of bacteria for all strains
